In patent US20240343681A1, “MOLECULES HAVING PESTICIDAL UTILITY AND INTERMEDIATES AND PROCESSES RELATED THERETO” (priority 2021, published 2024):

Key:
[1] = system: Beet Armyworm (Spodoptera exigua, LAPHEG) second instar larva; experiment: Bioassay on beet armyworm (BAW), 128-well diet tray assay; format: in vivo; details: 50 μg/cm^2 on artificial diet, 25° C., five days
Summary of the method: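 Test molecule in 90:10 acetone–water applied at 50 μg/cm^2 onto 1 mL artificial diet and dried; one second-instar larva per well, eight wells. Held 5 days at 25 °C, 14:10 light–dark; percent mortality averaged over the eight wells.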

[2] = system: Yellow Fever Mosquito (Aedes aegypti, AEDSAE) larvae; experiment: Bioassay on yellow fever mosquito (YFM), 96-well plate larval assay; format: in vivo; details: 4000 ppm (master plate solution), about 1 day-old larvae, 3 days
Description: Example B: Bioassays on Yellow Fever Mosquito (Aedes aegypti, AEDSAE) (“YFM”)
Master plates containing 400 μg of a molecule dissolved in 100 μL of dimethyl sulfoxide (DMSO) (equivalent to a 4000 ppm solution) are used. A master plate of assembled molecules contains 15 μL per well. To this plate, 135 μL of a 90:10 water/acetone mixture is added to each well. A robot (Biomek® NXP Laboratory Automation Workstation) is programmed to dispense 15 μL aspirations from the master plate into an empty 96-well shallow plate (“daughter” plate). There are 6 reps (“daughter” plates) created per master. The created “daughter” plates are then immediately infested with YFM larvae.
The day before plates are to be treated, mosquito eggs are placed in Millipore water containing liver powder to begin hatching (4 g into 400 mL). After the “daughter” plates are created using the robot, they are infested with 220 μL of the liver powder/larval mosquito mixture (about 1 day-old larvae). After plates are infested with mosquito larvae, a non-evaporative lid is used to cover the plate to reduce drying. Plates are held at room temperature for 3 days prior to grading. After 3 days, each well is observed and scored based on mortality.

SMILES: COCC(=O)Nc1cccc(NC(=O)[C@H]2[C@H](c3cc(Cl)cc(Cl)c3)C2(Cl)Cl)c1 (racemic) [F4, trans-rac-2,2-Dichloro-3-(3,5-dichlorophenyl)-N-(3-(2-methoxyacetamido)phenyl)cyclopropane-1-carboxamide]
- activity against BAW (percent mortality, averaged over eight wells) [1]: exhibited activity
- activity against YFM (scored based on mortality) [2]: exhibited activity

SMILES: O=C(CCC(F)(F)F)Nc1cc(NC(=O)[C@H]2[C@H](c3cc(Cl)cc(Cl)c3)C2(Cl)Cl)ccc1Cl (racemic) [F7, trans-rac-2,2-dichloro-N-(4-chloro-3-(4,4,4-trifluorobutanamido)phenyl)-3-(3,5-dichlorophenyl)cyclopropane-1-carboxamide]
- activity against BAW (percent mortality, averaged over eight wells) [1]: exhibited activity
- activity against YFM (scored based on mortality) [2]: exhibited activity

SMILES: O=C(Nc1cc(NC(=O)[C@H]2[C@H](c3cc(Cl)cc(Cl)c3)C2(Cl)Cl)ccc1Cl)c1c(F)cccc1F (racemic) [F25, trans-rac-N-(2-Chloro-5-(2,2-dichloro-3-(3,5-dichlorophenyl)cyclopropane-1-carboxamido)phenyl)-2,6-difluorobenzamide]
- activity against BAW (percent mortality, averaged over eight wells) [1]: exhibited activity
- activity against YFM (scored based on mortality) [2]: exhibited activity

SMILES: O=C(Nc1cc(NC(=O)[C@H]2[C@H](c3cc(Cl)cc(Cl)c3)C2(Cl)Cl)ccc1Cl)c1ccno1 (racemic) [F35, trans-rac-N-(2-Chloro-5-(2,2-dichloro-3-(3,5-dichlorophenyl)cyclopropane-1-carboxamido)phenyl)isoxazole-5-carboxamide]
- activity against BAW (percent mortality, averaged over eight wells) [1]: exhibited activity
- activity against YFM (scored based on mortality) [2]: exhibited activity

SMILES: COCC(=O)Nc1cc(NC(=O)[C@H]2[C@H](c3cc(Cl)cc(Cl)c3)C2(Cl)Cl)ccc1Cl (racemic) [F39, trans-rac-2,2-Dichloro-N-(4-chloro-3-(2-methoxyacetamido)phenyl)-3-(3,5-dichlorophenyl)cyclopropane-1-carboxamide]
- activity against BAW (percent mortality, averaged over eight wells) [1]: exhibited activity
- activity against YFM (scored based on mortality) [2]: exhibited activity

SMILES: CCOC(C)C(=O)Nc1cc(NC(=O)C2C(c3cc(Cl)cc(Cl)c3)C2(Cl)Cl)ccc1Cl (racemic) [F40, trans-rac-2,2-dichloro-N-(4-chloro-3-(2-ethoxypropanamido)phenyl)-3-(3,5-dichlorophenyl)cyclopropane-1-carboxamide]
- activity against BAW (percent mortality, averaged over eight wells) [1]: exhibited activity
- activity against YFM (scored based on mortality) [2]: exhibited activity

SMILES: N#CCC(=O)Nc1cc(NC(=O)[C@H]2[C@H](c3cc(Cl)cc(Cl)c3)C2(Cl)Cl)ccc1Cl (racemic) [F42, trans-rac-2,2-Dichloro-N-(4-chloro-3-(2-cyanoacetamido)phenyl)-3-(3,5-dichlorophenyl)cyclopropanecarboxamide]
- activity against BAW (percent mortality, averaged over eight wells) [1]: exhibited activity
- activity against YFM (scored based on mortality) [2]: exhibited activity

SMILES: CCCC(=O)Nc1cc(NC(=O)[C@H]2[C@H](c3cc(Cl)cc(Cl)c3)C2(Cl)Cl)ccc1Cl (racemic) [F45, trans-rac-N-(3-Butyramido-4-chlorophenyl)-2,2-dichloro-3-(3,5-dichlorophenyl)cyclopropane-1-carboxamide]
- activity against YFM (scored based on mortality) [2]: exhibited activity

SMILES: O=C(Cc1ccccc1)Nc1cc(NC(=O)[C@H]2[C@H](c3cc(Cl)cc(Cl)c3)C2(Cl)Cl)ccc1Cl (racemic) [F48, trans-rac-2,2-Dichloro-N-(4-chloro-3-(2-phenylacetamido)phenyl)-3-(3,5-dichlorophenyl)cyclopropane-1-carboxamide]
- activity against BAW (percent mortality, averaged over eight wells) [1]: exhibited activity
- activity against YFM (scored based on mortality) [2]: exhibited activity

SMILES: O=C(CC1CC1)Nc1cccc(NC(=O)[C@H]2[C@H](c3cc(Cl)cc(Cl)c3)C2(Cl)Cl)c1F [F21, (1R,3R)-2,2-Dichloro-N-(3-(2-cyclopropylacetamido)-2-fluorophenyl)-3-(3,5-dichlorophenyl)cyclopropane-1-carboxamide]
- activity against YFM (scored based on mortality) [2]: exhibited activity
